In ChEMBL document CHEMBL5537150, “Synthesis of melampomagnolide B derivatives as potential anti-Triple Negative Breast Cancer agents” (Eur J Med Chem, 2024):
Activity calls are given as the source filed them. No cut-off for these calls is given here.

Key:
MDA-MB-231 [1] = assay: Antiproliferative activity against human MDA-MB-231 cells assessed as inhibition of cell growth incubated for 72 hrs by MTT assay; type: functional, cell-based; conditions: MDA-MB-231, 72 h
4T1 [2] = assay: Antiproliferative activity against mouse 4T1 cells assessed as inhibition of cell growth incubated for 72 hrs by MTT assay; type: functional, cell-based; conditions: 4T1, 72 h
MDA-MB-468 [3] = assay: Induction of apoptosis in human MDA-MB-468 cells at 5 uM incubated for 48 hrs by annexin-V-APC/PI staining based flow cytometric analysis (reference value: 5.38 +/- 1.63 %); type: functional
MDA-MB-231 [4] = assay: Induction of apoptosis in human MDA-MB-231 cells at 0.2 uM incubated for 48 hrs by annexin-V-APC/PI staining based flow cytometric analysis (reference value: 1.81 +/- 0.47 %); type: functional
MDA-MB-231 [5] = assay: Induction of apoptosis in human MDA-MB-231 cells at 0.5 uM incubated for 48 hrs by annexin-V-APC/PI staining based flow cytometric analysis (reference value: 1.81 +/- 0.47 %); type: functional
MDA-MB-231 [6] = assay: Induction of apoptosis in human MDA-MB-231 cells at 1 uM incubated for 48 hrs by annexin-V-APC/PI staining based flow cytometric analysis (reference value: 1.81 +/- 0.47 %); type: functional
MDA-MB-231 [7] = assay: Induction of apoptosis in human MDA-MB-231 cells at 5 uM incubated for 48 hrs by annexin-V-APC/PI staining based flow cytometric analysis (reference value: 1.81 +/- 0.47 %); type: functional
MDA-MB-231 [8] = assay: Induction of apoptosis in human MDA-MB-231 cells assessed as downregulation of BCL-2 protein expression incubated for 48 hrs by Western blotting analysis; type: functional, cell-based
MDA-MB-468 [9] = assay: Induction of cell cycle arrest in human MDA-MB-468 cells assessed as increase in accumulation of cells at G2/M phase at 0.2 to 2 uM incubated for 48 hrs by RNase/PI staining based flow cytometric analysis; type: functional; conditions: dose 0.2-2 µM
MDA-MB-231 [10] = assay: Induction of cell cycle arrest in human MDA-MB-231 cells assessed as increase in accumulation of cells at S phase at 0.2 to 2 uM incubated for 48 hrs by RNase/PI staining based flow cytometric analysis; type: functional; conditions: dose 0.2-2 µM
MDA-MB-468 [11] = assay: Induction of cell cycle arrest in human MDA-MB-468 cells assessed as downregulation of Cdc2 protein expression incubated for 48 hrs by Western blotting analysis; type: functional, cell-based
MDA-MB-231 [12] = assay: Induction of cell cycle arrest in human MDA-MB-231 cells assessed as downregulation of Cdc25c protein expression incubated for 48 hrs by Western blotting analysis; type: functional, cell-based
MDA-MB-231 [13] = assay: Inhibition of NF-kappaB signalling pathway in human MDA-MB-231 cells assessed as downregulation of p65 phosphorylation at 0.5 to 2 uM incubated for 48 hrs by Western blotting analysis; type: cell-based; conditions: dose 0.5-2 µM
MDA-MB-231 [14] = assay: Inhibition of NF-kappaB signalling pathway in human MDA-MB-231 cells assessed as inhibition of p65 nuclear translocation at 0.2 to 2 uM incubated for 48 hrs by Western blotting analysis; type: cell-based; conditions: dose 0.2-2 µM
4T1 [15] = assay: Antitumor activity against mouse 4T1 cells implanted in Balb/c mouse assessed as inhibition of tumor volume at 10 mg/kg,ip administrated every two days for 20 days; type: functional, organism-based; conditions: time 20.0 day

IC50 (MDA-MB-231 [1]): 0.89 µM
IC50 (4T1 [2]): 1.18 µM
SMILES: C=C1C(=O)O[C@H]2[C@H]1CC/C(COc1ccc(-c3cc(=S)ss3)cc1)=C\CC[C@@]1(C)O[C@@H]21
Activity (MDA-MB-468 [3]): 43.96%
Activity (MDA-MB-231 [4]): 2.01%
Activity (MDA-MB-231 [5]): 2.3%
Activity (MDA-MB-231 [6]): 11.6%
Activity (MDA-MB-231 [7]): 71.28%
Activity (MDA-MB-231 [8]): Dose-Dependent Effect
Activity (MDA-MB-468 [9]): Active
Activity (MDA-MB-231 [10]): Active
Activity (MDA-MB-468 [11]): Dose-Dependent Effect
Activity (MDA-MB-231 [12]): Dose-Dependent Effect
inhibition (MDA-MB-231 [13]): Active
inhibition (MDA-MB-231 [14]): Active
Activity (4T1 [15]): Active
